Experimental data as given in paper PMC12675387, “Receptor interaction profiles of 4-alkoxy-2,6-dimethoxyphenethylamines (Ψ derivatives) and related amphetamines” (Frontiers in Pharmacology, 2025).

How the values were obtained:
[1] = molecular target: T1, human 5-HT2A receptor (Homo sapiens, UniProt P28223); experiment: Activation potency and efficacy at the 5-HT2A receptor (FLIPR calcium, NIH-3T3 cells); format: cell-based; details: for Emax: NIH3T3, relative to 5-HT (100%), read-out: h5-HT2A activation efficacy Emax ± SD
T1 construct: expressed in transfected cells; host or cells: NIH-3T3 mouse embryonic fibroblasts
Experimental: The activation potency and efficacy at the 5-HT2A receptor were determined as previously described by [Luethi et al. (2018)]. In short, mouse embryonic fibroblasts (NIH-3T3 cells) stably transfected with the human 5-HT2A receptor were seeded in poly-D-lysine-coated 96 well plates at a density of 70,000 cells per 100 μL. Next, the cells were incubated in HEPES-Hank’s Balanced Salt Solution (HBSS) buffer (Gibco) for 1 h at 37 °C; the cells were then incubated with 100 μL of dye solution (fluorescence imaging plate reader [FLIPR] calcium 5 assay kit; Molecular Devices, Sunnyvale, CA, United States) per well for 1 h at 37 °C. The plate was then inserted into the FLIPR and 25 μL of the test compounds diluted in HEPES-HBSS buffer containing […] probenecid were added online. Increase of the fluorescence signal was measured and the activation potency (EC50) was calculated from the dose-response curves using nonlinear regression. The activation efficacy was calculated relative to 5-HT activity (defined as 100% activity).

[2] = molecular target: T2, human 5-HT2B receptor (Homo sapiens, UniProt P41595); experiment: Activation potency and efficacy at the 5-HT2B receptor (Fluo-4 calcium, HEK 293 cells); format: cell-based; details: for Emax: HEK293, relative to 5-HT (100%), read-out: h5-HT2B activation efficacy Emax ± SD
T2 construct: expressed in transfected cells; host or cells: HEK 293 cells
Experimental: The activation potency and efficacy at the 5-HT2B receptor were determined as previously described by [Luethi et al. (2018)]. In summary, HEK 293 cells stably transfected with the human 5-HT2B receptor were seeded in poly-D-lysine-coated 96 well plates at a density of 50,000 cells per well overnight at 37 °C in high glucose Dulbecco’s modified Eagle’s medium (DMEM; Invitrogen, Zug, Switzerland) supplemented with 10% fetal calf serum (non-dialyzed and heat-inactivated), 250 mg/L Geneticin, and 100 U/mL penicillin, and 100 μg/mL streptomycin (Gibco). The growth medium was removed by snap inversion and the cells were exposed to 100 μL calcium indication Fluo-4-solution (Molecular Probes, Eugene, OR, United States) for 45 min at 31 °C. Thereafter, the Fluo-4-solution was removed once again by snap inversion and was replaced with fresh 100 μL Fluo-4-solution. Next, the cells were washed with HBSS and 20 mM HEPES using the EMBLA cell washer and then exposed to the assay buffer (100 μL per well). Afterwards, 25 μL of test compounds diluted in assay buffer were added to the plate online. Dose–response curves were determined using nonlinear regression and EC50 values were calculated. The activation efficacy was calculated relative to the 5-HT activity (defined as 100%).

[3] = molecular target: mTAAR1 (Mus musculus, UniProt Q923Y8); experiment: Radioligand binding, mouse TAAR1 ([3H]RO5166017)
[4] = molecular target: T3, h5-HT1A receptor (Homo sapiens, UniProt P08908); experiment: Radioligand binding, 5-HT1A receptor ([3H]8-OH-DPAT)
T3 sequence (P08908 1-422): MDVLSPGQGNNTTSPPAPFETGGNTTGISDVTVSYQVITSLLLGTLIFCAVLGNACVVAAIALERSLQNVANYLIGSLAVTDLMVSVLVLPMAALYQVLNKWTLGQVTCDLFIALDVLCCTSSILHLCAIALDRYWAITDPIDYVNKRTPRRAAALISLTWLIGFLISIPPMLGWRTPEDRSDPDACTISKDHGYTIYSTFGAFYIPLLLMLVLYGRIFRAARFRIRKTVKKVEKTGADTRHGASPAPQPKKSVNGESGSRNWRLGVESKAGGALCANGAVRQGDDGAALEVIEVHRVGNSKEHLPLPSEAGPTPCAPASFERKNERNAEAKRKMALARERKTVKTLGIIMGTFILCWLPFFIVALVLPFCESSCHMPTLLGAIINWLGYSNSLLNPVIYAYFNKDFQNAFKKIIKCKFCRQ

[5] = molecular target: h5-HT2A receptor (Homo sapiens, UniProt P28223); experiment: Radioligand binding, 5-HT2A receptor ([3H]ketanserin); details: for fold difference in 5-HT2A receptor affinity between Ψ derivative and its 2,4,5-trisubstituted counterpart: TMA-6 vs TMA-2, Ψ-2C-O-16 vs 2C-O-16, Ψ-MALM vs MALM: higher affinity of the Ψ derivative; for Selectivity (binding ratio) 5-HT2A/5-HT1A: preference for 5-HT2A (Ki 5-HT1A divided by Ki 5-HT2A); for Selectivity (binding ratio) 5-HT2A/5-HT2C: preference for 5-HT2A (Ki 5-HT2C divided by Ki 5-HT2A)
[6] = molecular target: T4, hα2A adrenergic receptor (Homo sapiens, UniProt P08913); experiment: Radioligand binding, α2A adrenergic receptor ([3H]rauwolscine)
T4 sequence (P08913 1-465): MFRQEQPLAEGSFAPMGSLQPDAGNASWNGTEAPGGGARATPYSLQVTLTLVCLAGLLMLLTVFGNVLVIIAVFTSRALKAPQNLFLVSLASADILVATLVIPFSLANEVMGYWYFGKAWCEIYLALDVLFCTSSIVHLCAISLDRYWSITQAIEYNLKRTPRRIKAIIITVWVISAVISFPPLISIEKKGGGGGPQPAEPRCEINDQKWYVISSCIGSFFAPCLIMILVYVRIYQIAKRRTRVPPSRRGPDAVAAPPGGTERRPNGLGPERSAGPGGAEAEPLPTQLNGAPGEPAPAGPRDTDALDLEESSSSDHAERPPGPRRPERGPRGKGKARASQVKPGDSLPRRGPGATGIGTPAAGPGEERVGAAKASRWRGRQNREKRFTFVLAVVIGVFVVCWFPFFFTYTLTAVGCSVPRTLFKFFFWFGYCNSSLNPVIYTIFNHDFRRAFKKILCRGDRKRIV

h5-HT2A receptor, sequence (P28223 whole entry): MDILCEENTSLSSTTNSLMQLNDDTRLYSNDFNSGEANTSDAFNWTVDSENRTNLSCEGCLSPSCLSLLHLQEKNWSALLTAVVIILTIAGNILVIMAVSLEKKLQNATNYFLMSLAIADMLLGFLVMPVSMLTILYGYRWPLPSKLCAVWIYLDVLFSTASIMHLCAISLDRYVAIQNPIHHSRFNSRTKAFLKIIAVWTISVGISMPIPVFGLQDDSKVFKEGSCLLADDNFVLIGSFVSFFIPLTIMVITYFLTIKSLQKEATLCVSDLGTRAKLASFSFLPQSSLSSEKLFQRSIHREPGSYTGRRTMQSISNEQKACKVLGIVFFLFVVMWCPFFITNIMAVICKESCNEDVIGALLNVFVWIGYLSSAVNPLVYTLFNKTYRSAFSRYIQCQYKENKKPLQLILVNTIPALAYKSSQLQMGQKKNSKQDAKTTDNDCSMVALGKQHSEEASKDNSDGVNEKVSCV
T1 sequence (P28223 whole entry): as above
mTAAR1, sequence (Q923Y8 whole entry): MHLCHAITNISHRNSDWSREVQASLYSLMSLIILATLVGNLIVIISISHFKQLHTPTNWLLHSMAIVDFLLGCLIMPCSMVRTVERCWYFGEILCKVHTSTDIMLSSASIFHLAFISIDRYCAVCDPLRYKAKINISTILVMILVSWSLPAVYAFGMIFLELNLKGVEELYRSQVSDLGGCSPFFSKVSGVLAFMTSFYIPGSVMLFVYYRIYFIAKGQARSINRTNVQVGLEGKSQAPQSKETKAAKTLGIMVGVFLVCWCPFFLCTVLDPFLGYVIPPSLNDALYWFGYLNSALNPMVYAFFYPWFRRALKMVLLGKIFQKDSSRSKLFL
T2 sequence (P41595 whole entry): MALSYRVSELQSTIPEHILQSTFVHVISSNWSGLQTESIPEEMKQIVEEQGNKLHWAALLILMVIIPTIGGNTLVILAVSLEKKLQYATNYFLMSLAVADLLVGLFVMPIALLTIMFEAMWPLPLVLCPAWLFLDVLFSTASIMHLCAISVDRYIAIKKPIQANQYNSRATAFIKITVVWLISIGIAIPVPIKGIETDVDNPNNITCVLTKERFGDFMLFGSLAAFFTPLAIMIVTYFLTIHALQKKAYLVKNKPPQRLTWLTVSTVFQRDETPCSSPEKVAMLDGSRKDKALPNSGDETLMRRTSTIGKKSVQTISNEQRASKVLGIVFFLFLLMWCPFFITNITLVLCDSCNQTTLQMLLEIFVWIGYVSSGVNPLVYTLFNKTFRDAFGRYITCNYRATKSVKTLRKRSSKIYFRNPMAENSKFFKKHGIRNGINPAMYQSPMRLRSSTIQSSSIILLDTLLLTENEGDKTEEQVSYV

Row | Compound | EC50 [1] | type of agonism at the 5-HT2A receptor [1] | Emax [1] | EC50 [2] | Emax [2] | Ki [3] | Ki [4] | Ki [5] | fold difference in 5-HT2A receptor affinity between Ψ derivative and its 2,4,5-trisubstituted counterpart [5] | Selectivity (binding ratio) 5-HT2A/5-HT1A [5] | Selectivity (binding ratio) 5-HT2A/5-HT2C [5] | Ki [6] | fold difference in 5-HT2B activation potency, amphetamine vs phenethylamine counterpart ([2]; Ψ-MEM vs Ψ-2C-O-2) | fold increase in 5-HT2A affinity over the 4-methoxy analog ([5]; pairs Ψ-2C-O-1/Ψ-2C-O-35 and TMA-6/Ψ-DODFMO) | fold increase in 5-HT2A activation potency over non-fluorinated counterpart Ψ-2C-O-2 [1]
1 | C=CCOc1cc(OC)c(CC(C)N)c(OC)c1 (stereo not shown) [Ψ-MALM, 4-allyloxy-2,6-dimethoxyamphetamine] | 180 ± 70 nM | partial agonists | 66 ± 6% | 55 ± 24 nM | 69 ± 19% | 270 ± 50 nM | > 5600 nM | 75 ± 11 nM | 2–5 fold | >75 | 10 | 1800 nM | – | – | –
2 | CCOc1cc(OC)c(CC(C)N)c(OC)c1 (stereo not shown) [Ψ-MEM, 2,6-dimethoxy-4-ethoxyamphetamine] | 650 ± 210 nM | – | 54 ± 5% | 260 ± 160 nM | 28 ± 11% | 400 ± 20 nM | > 5600 nM | 490 ± 20 nM | – | >11 | 10 | 2200 nM | 8 fold | – | –
3 | COc1cc(OCC(F)F)cc(OC)c1CC(C)N (stereo not shown) [Ψ-MDFEM, 4-(2,2-difluoroethoxy)-2,6-dimethoxyamphetamine] | 1100 nM | – | 34 ± 7% | > 10000 nM | – | 500 ± 70 nM | > 5600 nM | 950 ± 240 nM | – | >6 | 10 | 3300 nM | – | – | –
4 | C=CCOc1cc(OC)c(CCN)c(OC)c1 [Ψ-2C-O-16, 4-allyloxy-2,6-dimethoxyphenethylamine] | 39 ± 19 nM | – | 49 ± 20% | 91 ± 31 nM | 27 ± 8% | 150 ± 20 nM | 910 ± 60 nM | 54 ± 4 nM | 2–5 fold | 17 | 9.3 | 310 ± 20 nM | – | – | –
5 | C=C(C)COc1cc(OC)c(CCN)c(OC)c1 [Ψ-2C-O-3, 2,6-dimethoxy-4-methallyloxyphenethylamine] | 200 ± 20 nM | – | 23 ± 10% | 310 ± 240 nM | 17 ± 4% | 120 ± 20 nM | 1010 nM | 32 ± 8 nM | – | 32 | 6.6 | 280 ± 30 nM | – | – | –
6 | COc1cc(OCc2ccccc2)cc(OC)c1CCN [Ψ-2C-O-27, 4-benzyloxy-2,6-dimethoxyphenethylamine] | 410 ± 160 nM | – | 42 ± 8% | > 10000 nM | – | 610 ± 6 nM | 2100 nM | 8 ± 1 nM | – | 280 | 15 | 410 ± 20 nM | – | – | –
7 | COc1cc(OCC(F)F)cc(OC)c1CCN [Ψ-2C-O-21.5, 4-(2,2-difluoroethoxy)-2,6-dimethoxyphenethylamine] | 740 ± 80 nM | – | 31 ± 5% | > 10000 nM | – | 220 ± 40 nM | 1300 nM | 1600 nM | – | 0.8 | 1.8 | 1000 nM | – | – | –
8 | COc1cc(OCC(F)(F)F)cc(OC)c1CC(C)N (stereo not shown) [Ψ-MTFEM, 2,6-dimethoxy-4-(2,2,2-trifluoroethoxy)amphetamine] | 1100 nM | – | 33 ± 6% | > 10000 nM | – | 410 ± 80 nM | > 5600 nM | 570 ± 80 nM | – | >10 | 9.6 | 3800 nM | – | – | –
9 | COc1cc(OC(F)F)cc(OC)c1CC(C)N (stereo not shown) [Ψ-DODFMO, 4-(2,2-difluoromethoxy)-2,6-dimethoxyamphetamine] | 300 ± 100 nM | – | 54 ± 4% | 160 ± 50 nM | 58 ± 23% | 860 ± 40 nM | 5100 nM | 84 ± 23 nM | – | 61 | 21 | 2300 nM | – | 3–4 fold | –
10 | COc1cc(OCCF)cc(OC)c1CCN [Ψ-2C-O-21, 2,6-dimethoxy-4-(2-fluoroethoxy)phenethylamine] | 32 ± 2 nM | – | 55 ± 14% | > 10000 nM | – | 320 ± 30 nM | 1600 nM | 970 ± 190 nM | – | 1.6 | 3.6 | – | – | – | 3 fold
11 | COc1cc(OCCF)cc(OC)c1CC(C)N (stereo not shown) [Ψ-MFEM, 2,6-dimethoxy-4-(2-fluoroethoxy)amphetamine] | 1300 nM | – | 37 ± 2% | > 10000 nM | – | 560 ± 10 nM | > 5600 nM | 1400 nM | – | >4 | 7.1 | 4100 nM | – | – | –
